Reference: the NIST ThermoML archive (doi:10.1007/s10765-009-0566-6)

Legend:
[1] = cn = amount concentration of the nth substance listed, in mol/dm3; conditions: 101 kPa, Liquid, Direct current cell with electrodes
[2] = osmotic coefficient (dimensionless); mn = molality of the nth substance listed, in mol/kg; conditions: Liquid, vapor pressure osmometry

CCCCCn1cc[n+](C)c1.[Cl-] [1-methyl-3-pentylimidazolium chloride] + O
Conditions | molar conductivity [S·m2/mol] | osmotic coefficient
[1], 298.15 K, c1 = 0.000693 | 0.00871 | –
[1], 298.15 K, c1 = 0.001453 | 0.00866 | –
[1], 298.15 K, c1 = 0.002097 | 0.00863 | –
[1], 298.15 K, c1 = 0.002732 | 0.00862 | –
[1], 298.15 K, c1 = 0.004637 | 0.0086 | –
[1], 298.15 K, c1 = 0.006272 | 0.00858 | –
[1], 298.15 K, c1 = 0.007754 | 0.00852 | –
[1], 298.15 K, c1 = 0.01023 | 0.00841 | –
[1], 298.15 K, c1 = 0.01283 | 0.00832 | –
[1], 298.15 K, c1 = 0.01775 | 0.00817 | –
[1], 298.15 K, c1 = 0.02186 | 0.00804 | –
[1], 298.15 K, c1 = 0.02704 | 0.00793 | –
[1], 298.15 K, c1 = 0.03205 | 0.00783 | –
[1], 298.15 K, c1 = 0.0368 | 0.0078 | –
[1], 298.15 K, c1 = 0.04132 | 0.00772 | –
[1], 298.15 K, c1 = 0.04635 | 0.00763 | –
[1], 298.15 K, c1 = 0.05182 | 0.00752 | –
[1], 308.15 K, c1 = 0.000752 | 0.00993 | –
[1], 308.15 K, c1 = 0.001643 | 0.00975 | –
[1], 308.15 K, c1 = 0.002686 | 0.00964 | –
[1], 308.15 K, c1 = 0.00347 | 0.00956 | –
[1], 308.15 K, c1 = 0.004191 | 0.00959 | –
[1], 308.15 K, c1 = 0.005081 | 0.00953 | –
[1], 308.15 K, c1 = 0.006215 | 0.00945 | –
[1], 308.15 K, c1 = 0.007646 | 0.00937 | –
[1], 308.15 K, c1 = 0.009172 | 0.00927 | –
[1], 308.15 K, c1 = 0.01102 | 0.00917 | –
[1], 308.15 K, c1 = 0.01269 | 0.00912 | –
[1], 308.15 K, c1 = 0.01447 | 0.00906 | –
[1], 308.15 K, c1 = 0.01625 | 0.00902 | –
[1], 308.15 K, c1 = 0.01799 | 0.00895 | –
[1], 308.15 K, c1 = 0.01986 | 0.00889 | –
[1], 308.15 K, c1 = 0.02253 | 0.00881 | –
[1], 308.15 K, c1 = 0.02549 | 0.00873 | –
[1], 308.15 K, c1 = 0.02884 | 0.00863 | –
[1], 308.15 K, c1 = 0.03245 | 0.00856 | –
[1], 308.15 K, c1 = 0.0363 | 0.00846 | –
[1], 308.15 K, c1 = 0.04073 | 0.00837 | –
[1], 308.15 K, c1 = 0.04603 | 0.0082 | –
[1], 308.15 K, c1 = 0.04936 | 0.00814 | –
[1], 318.15 K, c1 = 0.000273 | 0.0115 | –
[1], 318.15 K, c1 = 0.000592 | 0.0114 | –
[1], 318.15 K, c1 = 0.001207 | 0.0112 | –
[1], 318.15 K, c1 = 0.002002 | 0.0111 | –
[1], 318.15 K, c1 = 0.002757 | 0.011 | –
[1], 318.15 K, c1 = 0.003483 | 0.0108 | –
[1], 318.15 K, c1 = 0.004458 | 0.0107 | –
[1], 318.15 K, c1 = 0.005601 | 0.0106 | –
[1], 318.15 K, c1 = 0.007348 | 0.0105 | –
[1], 318.15 K, c1 = 0.008904 | 0.0104 | –
[1], 318.15 K, c1 = 0.01052 | 0.0103 | –
[1], 318.15 K, c1 = 0.0124 | 0.0102 | –
[1], 318.15 K, c1 = 0.01478 | 0.0101 | –
[1], 318.15 K, c1 = 0.01661 | 0.01 | –
[1], 318.15 K, c1 = 0.0196 | 0.00989 | –
[1], 318.15 K, c1 = 0.02241 | 0.00978 | –
[1], 318.15 K, c1 = 0.02545 | 0.00966 | –
[1], 318.15 K, c1 = 0.02897 | 0.00953 | –
[1], 318.15 K, c1 = 0.03318 | 0.00939 | –
[1], 318.15 K, c1 = 0.03779 | 0.00924 | –
[1], 328.15 K, c1 = 0.000588 | 0.0119 | –
[1], 328.15 K, c1 = 0.001076 | 0.0118 | –
[1], 328.15 K, c1 = 0.001612 | 0.0117 | –
[1], 328.15 K, c1 = 0.002109 | 0.0116 | –
[1], 328.15 K, c1 = 0.002949 | 0.0116 | –
[1], 328.15 K, c1 = 0.003721 | 0.0116 | –
[1], 328.15 K, c1 = 0.004608 | 0.0115 | –
[1], 328.15 K, c1 = 0.005897 | 0.0113 | –
[1], 328.15 K, c1 = 0.007087 | 0.0111 | –
[1], 328.15 K, c1 = 0.008632 | 0.011 | –
[1], 328.15 K, c1 = 0.01034 | 0.0108 | –
[1], 328.15 K, c1 = 0.01229 | 0.0106 | –
[1], 328.15 K, c1 = 0.01539 | 0.0105 | –
[1], 328.15 K, c1 = 0.01788 | 0.0104 | –
[1], 328.15 K, c1 = 0.02011 | 0.0103 | –
[1], 328.15 K, c1 = 0.02273 | 0.0101 | –
[2], 298.15 K, m1 = 0.014 | – | 0.931
[2], 298.15 K, m1 = 0.0263 | – | 0.889
[2], 298.15 K, m1 = 0.0391 | – | 0.882
[2], 298.15 K, m1 = 0.0518 | – | 0.871
[2], 298.15 K, m1 = 0.0634 | – | 0.863
[2], 298.15 K, m1 = 0.084 | – | 0.852
[2], 298.15 K, m1 = 0.1007 | – | 0.841
[2], 298.15 K, m1 = 0.1369 | – | 0.821
[2], 298.15 K, m1 = 0.1784 | – | 0.805
[2], 298.15 K, m1 = 0.2198 | – | 0.797
[2], 298.15 K, m1 = 0.2765 | – | 0.79
[2], 298.15 K, m1 = 0.3517 | – | 0.781
[2], 298.15 K, m1 = 0.4043 | – | 0.768
[2], 298.15 K, m1 = 0.5014 | – | 0.75
[2], 298.15 K, m1 = 0.5758 | – | 0.735
[2], 298.15 K, m1 = 0.8464 | – | 0.722
[2], 298.15 K, m1 = 1.002 | – | 0.71
[2], 298.15 K, m1 = 1.376 | – | 0.697
[2], 298.15 K, m1 = 1.797 | – | 0.687
[2], 308.15 K, m1 = 0.014 | – | 0.938
[2], 308.15 K, m1 = 0.0263 | – | 0.905
[2], 308.15 K, m1 = 0.0391 | – | 0.887
[2], 308.15 K, m1 = 0.0518 | – | 0.878
[2], 308.15 K, m1 = 0.0634 | – | 0.868
[2], 308.15 K, m1 = 0.084 | – | 0.858
[2], 308.15 K, m1 = 0.1007 | – | 0.845
[2], 308.15 K, m1 = 0.1369 | – | 0.829
[2], 308.15 K, m1 = 0.1784 | – | 0.812
[2], 308.15 K, m1 = 0.2198 | – | 0.803
[2], 308.15 K, m1 = 0.2765 | – | 0.795
[2], 308.15 K, m1 = 0.3517 | – | 0.788
[2], 308.15 K, m1 = 0.4043 | – | 0.78
[2], 308.15 K, m1 = 0.5014 | – | 0.753
[2], 308.15 K, m1 = 0.5758 | – | 0.742
[2], 308.15 K, m1 = 0.8464 | – | 0.726
[2], 308.15 K, m1 = 1.002 | – | 0.715
[2], 308.15 K, m1 = 1.376 | – | 0.704
[2], 308.15 K, m1 = 1.797 | – | 0.691
[2], 318.15 K, m1 = 0.014 | – | 0.941
[2], 318.15 K, m1 = 0.0263 | – | 0.911
[2], 318.15 K, m1 = 0.0391 | – | 0.903
[2], 318.15 K, m1 = 0.0518 | – | 0.885
[2], 318.15 K, m1 = 0.0634 | – | 0.878
[2], 318.15 K, m1 = 0.084 | – | 0.865
[2], 318.15 K, m1 = 0.1007 | – | 0.854
[2], 318.15 K, m1 = 0.1369 | – | 0.845
[2], 318.15 K, m1 = 0.1784 | – | 0.831
[2], 318.15 K, m1 = 0.2198 | – | 0.822
[2], 318.15 K, m1 = 0.2765 | – | 0.803
[2], 318.15 K, m1 = 0.3517 | – | 0.794
[2], 318.15 K, m1 = 0.4043 | – | 0.784
[2], 318.15 K, m1 = 0.5014 | – | 0.76
[2], 318.15 K, m1 = 0.5758 | – | 0.748
[2], 318.15 K, m1 = 0.8464 | – | 0.735
[2], 318.15 K, m1 = 1.002 | – | 0.723
[2], 318.15 K, m1 = 1.376 | – | 0.711
[2], 318.15 K, m1 = 1.797 | – | 0.697
[2], 328.15 K, m1 = 0.014 | – | 0.949
[2], 328.15 K, m1 = 0.0263 | – | 0.923
[2], 328.15 K, m1 = 0.0391 | – | 0.908
[2], 328.15 K, m1 = 0.0518 | – | 0.897
[2], 328.15 K, m1 = 0.0634 | – | 0.886
[2], 328.15 K, m1 = 0.084 | – | 0.87
[2], 328.15 K, m1 = 0.1007 | – | 0.866
[2], 328.15 K, m1 = 0.1369 | – | 0.849
[2], 328.15 K, m1 = 0.1784 | – | 0.837
[2], 328.15 K, m1 = 0.2198 | – | 0.828
[2], 328.15 K, m1 = 0.2765 | – | 0.809
[2], 328.15 K, m1 = 0.3517 | – | 0.799
[2], 328.15 K, m1 = 0.4043 | – | 0.79
[2], 328.15 K, m1 = 0.5014 | – | 0.771
[2], 328.15 K, m1 = 0.5758 | – | 0.756
[2], 328.15 K, m1 = 0.8464 | – | 0.739
[2], 328.15 K, m1 = 1.002 | – | 0.73
[2], 328.15 K, m1 = 1.376 | – | 0.718
[2], 328.15 K, m1 = 1.797 | – | 0.704
